The source of these data is patent US20230233545A1, “TREATMENT OF ATRIAL DYSFUNCTION” (MyoKardia, Inc., priority 2020, published 2023).

The structures appear in SMILES notation.

A short description of series [1]: Pharmacokinetics in healthy volunteers. Conditions: human, in vivo.
Series [2] in a line: Pharmacokinetics in patients with stable HFrEF. It counts as in vivo. The conditions noted are these: human, oral. On the procedure:
In the single-ascending dose trial, single fasting doses of Compound I 175-550 mg or placebo were evaluated in a crossover manner in 12 patients over two sequential cohorts (1 and 2), with intervals between singles doses ranging from 3 days (subsequently amended to 5) to 14 days. In Cohort 1, eight patients were enrolled and all received placebo and Compound I 175 mg and 350 mg (in random sequence and in a blinded fashion) during three periods, A-C. Six patients elected to continue into a fourth optional open label period D. Compound I doses administered in the open-label period included: 350 mg (n=1); 450 mg (divided into two administrations; n=1); 525 mg (n=2); and 550 mg (divided into two administrations; n=2). In Cohort 2, four patients were enrolled, and all received placebo and Compound I 400 mg and 500 mg in random sequence (both active 400 mg and 500 mg doses were divided into two administrations).
For each treatment period, pre-dose assessments followed by administration of single dose were performed on Day 1 in the morning. The patient underwent serial pharmacokinetic (PK), pharmacodynamic (PD [trans-thoracic echocardiography or TTE]), ECG and safety laboratory assessments through Day 1 (until the evening) as well as on Day 2. Patients were discharged on Day 3 morning and returned to the clinic on Day 4 for a final PK assessment, and evaluation of adverse events (AEs). […]

The target in series [3] is T1, recombinant human cardiac S1 myosin (Homo sapiens, UniProt P12883).
T1 construct: subfragment-1 (51) myosins from cardiac (recombinant human), skeletal (rabbit psoas) and smooth (chicken gizzard) muscles; made in house
Put plainly: Actin-activated ATPase, cardiac S1 myosin. It counts as biochemical. Conditions: at 3 μM. On the procedure:
The ability of Compound I to increase myocardial ATP turnover rates selectively was evaluated using both left atrial (LA) and left ventricular (LV) myofibrils prepared from Yucatan mini-pig hearts, as well as subfragment-1 (51) myosins from cardiac (recombinant human), skeletal (rabbit psoas) and smooth (chicken gizzard) muscles. Pig hearts were harvested, and the left atria/ventricles were freshly excised, dissected, frozen in liquid nitrogen and stored at −80° C. […]
Steady-state ATPase measurements at varying concentrations of Compound I (0-50 μM, in 2% DMSO) were conducted using a coupled enzyme system utilizing pyruvate kinase and lactate dehydrogenase. This enzyme system couples the formation of ADP to the oxidation of NADH leading to an absorbance change at 340 nm. […] All measurements were carried out at 25° C. using a plate reader (SpectraMax; Molecular Devices, LLC, CA, USA) to monitor the change in absorbance as a function of time; data were normalized to a per-second scale as described in Green et al., Science (2016) 351(6273):617-21. […]

The target in series [4] is left atrial (LA) myofibrils (Sus scrofa, UniProt K7GMH0). Put plainly: Steady-state ATPase (ATP turnover rate), LA myofibrils. Type of series: biochemical, Yucatan mini-pig. On the procedure: The ability of Compound I to increase myocardial ATP turnover rates selectively was evaluated using both left atrial (LA) and left ventricular (LV) myofibrils prepared from Yucatan mini-pig hearts, as well as subfragment-1 (51) myosins from cardiac (recombinant human), skeletal (rabbit psoas) and smooth (chicken gizzard) muscles. Pig hearts were harvested, and the left atria/ventricles were freshly excised, dissected, frozen in liquid nitrogen and stored at −80° C. […] This enzyme system couples the formation of ADP to the oxidation of NADH leading to an absorbance change at 340 nm. […] All measurements were carried out at 25° C. using a plate reader (SpectraMax; Molecular Devices, LLC, CA, USA) to monitor the change in absorbance as a function of time; data were normalized to a per-second scale as described in Green et al., Science (2016) 351(6273):617-21. […]
left atrial (LA) myofibrils, sequence (F1SSF9 2-175): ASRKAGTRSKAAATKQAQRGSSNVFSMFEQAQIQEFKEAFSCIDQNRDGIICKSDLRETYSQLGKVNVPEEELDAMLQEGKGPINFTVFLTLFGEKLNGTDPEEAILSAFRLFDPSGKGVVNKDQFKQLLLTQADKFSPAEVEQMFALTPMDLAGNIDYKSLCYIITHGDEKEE
left atrial (LA) myofibrils, sequence (K7GMH0 entry or part of it): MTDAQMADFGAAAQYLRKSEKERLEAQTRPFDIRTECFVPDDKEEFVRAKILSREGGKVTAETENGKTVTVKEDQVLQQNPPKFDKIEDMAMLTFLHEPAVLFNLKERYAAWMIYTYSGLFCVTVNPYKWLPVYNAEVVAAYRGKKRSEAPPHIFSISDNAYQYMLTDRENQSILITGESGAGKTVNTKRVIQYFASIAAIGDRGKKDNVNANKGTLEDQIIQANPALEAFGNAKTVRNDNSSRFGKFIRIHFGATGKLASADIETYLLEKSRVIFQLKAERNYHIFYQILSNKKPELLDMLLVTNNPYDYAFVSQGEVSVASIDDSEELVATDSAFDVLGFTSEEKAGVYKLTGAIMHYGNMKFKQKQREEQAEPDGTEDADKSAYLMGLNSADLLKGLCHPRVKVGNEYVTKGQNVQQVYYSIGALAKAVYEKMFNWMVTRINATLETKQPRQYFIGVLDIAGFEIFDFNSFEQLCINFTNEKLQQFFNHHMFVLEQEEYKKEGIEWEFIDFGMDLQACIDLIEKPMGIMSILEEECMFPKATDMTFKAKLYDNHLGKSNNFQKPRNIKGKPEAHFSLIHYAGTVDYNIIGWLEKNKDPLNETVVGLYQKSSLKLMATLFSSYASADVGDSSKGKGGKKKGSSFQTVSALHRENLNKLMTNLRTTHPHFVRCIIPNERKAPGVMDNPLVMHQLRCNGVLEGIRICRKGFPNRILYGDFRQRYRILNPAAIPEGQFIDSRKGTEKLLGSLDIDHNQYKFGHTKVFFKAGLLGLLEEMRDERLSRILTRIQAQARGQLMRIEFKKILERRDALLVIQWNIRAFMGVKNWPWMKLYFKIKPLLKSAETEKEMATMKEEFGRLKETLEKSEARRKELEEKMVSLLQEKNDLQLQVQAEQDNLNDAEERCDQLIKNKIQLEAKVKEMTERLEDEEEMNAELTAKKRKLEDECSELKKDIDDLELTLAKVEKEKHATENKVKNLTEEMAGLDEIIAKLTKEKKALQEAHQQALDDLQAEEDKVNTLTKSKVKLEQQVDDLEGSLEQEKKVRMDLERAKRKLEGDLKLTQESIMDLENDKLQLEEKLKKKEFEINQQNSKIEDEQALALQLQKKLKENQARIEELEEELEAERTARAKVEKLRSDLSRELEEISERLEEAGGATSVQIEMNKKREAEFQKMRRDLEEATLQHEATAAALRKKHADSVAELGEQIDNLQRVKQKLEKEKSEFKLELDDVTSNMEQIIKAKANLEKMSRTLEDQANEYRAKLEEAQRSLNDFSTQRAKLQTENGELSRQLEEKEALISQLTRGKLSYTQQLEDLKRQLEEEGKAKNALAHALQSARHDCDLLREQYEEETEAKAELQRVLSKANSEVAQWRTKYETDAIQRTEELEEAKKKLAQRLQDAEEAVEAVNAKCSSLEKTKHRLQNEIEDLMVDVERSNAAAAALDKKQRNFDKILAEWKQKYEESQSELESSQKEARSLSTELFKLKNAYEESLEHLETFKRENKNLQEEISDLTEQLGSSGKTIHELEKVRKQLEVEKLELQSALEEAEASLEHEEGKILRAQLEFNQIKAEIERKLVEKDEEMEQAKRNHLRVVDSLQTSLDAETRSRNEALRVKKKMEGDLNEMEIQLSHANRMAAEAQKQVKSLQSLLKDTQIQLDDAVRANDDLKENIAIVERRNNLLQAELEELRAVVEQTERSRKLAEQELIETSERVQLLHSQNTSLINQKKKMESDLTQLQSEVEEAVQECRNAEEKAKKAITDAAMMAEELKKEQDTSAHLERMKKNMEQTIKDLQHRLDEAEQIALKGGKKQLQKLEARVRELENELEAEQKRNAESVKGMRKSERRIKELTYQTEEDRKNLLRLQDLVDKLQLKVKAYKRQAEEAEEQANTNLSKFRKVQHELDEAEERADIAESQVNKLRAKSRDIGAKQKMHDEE
left atrial (LA) myofibrils, sequence (F1RRT2 2-197, further chain): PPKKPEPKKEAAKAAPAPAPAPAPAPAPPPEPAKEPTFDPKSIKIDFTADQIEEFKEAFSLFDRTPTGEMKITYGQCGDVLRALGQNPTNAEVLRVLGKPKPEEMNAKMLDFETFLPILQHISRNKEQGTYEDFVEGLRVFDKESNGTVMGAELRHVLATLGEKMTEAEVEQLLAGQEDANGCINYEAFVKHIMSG

T1 sequence (P12883 1-808 limits assumed): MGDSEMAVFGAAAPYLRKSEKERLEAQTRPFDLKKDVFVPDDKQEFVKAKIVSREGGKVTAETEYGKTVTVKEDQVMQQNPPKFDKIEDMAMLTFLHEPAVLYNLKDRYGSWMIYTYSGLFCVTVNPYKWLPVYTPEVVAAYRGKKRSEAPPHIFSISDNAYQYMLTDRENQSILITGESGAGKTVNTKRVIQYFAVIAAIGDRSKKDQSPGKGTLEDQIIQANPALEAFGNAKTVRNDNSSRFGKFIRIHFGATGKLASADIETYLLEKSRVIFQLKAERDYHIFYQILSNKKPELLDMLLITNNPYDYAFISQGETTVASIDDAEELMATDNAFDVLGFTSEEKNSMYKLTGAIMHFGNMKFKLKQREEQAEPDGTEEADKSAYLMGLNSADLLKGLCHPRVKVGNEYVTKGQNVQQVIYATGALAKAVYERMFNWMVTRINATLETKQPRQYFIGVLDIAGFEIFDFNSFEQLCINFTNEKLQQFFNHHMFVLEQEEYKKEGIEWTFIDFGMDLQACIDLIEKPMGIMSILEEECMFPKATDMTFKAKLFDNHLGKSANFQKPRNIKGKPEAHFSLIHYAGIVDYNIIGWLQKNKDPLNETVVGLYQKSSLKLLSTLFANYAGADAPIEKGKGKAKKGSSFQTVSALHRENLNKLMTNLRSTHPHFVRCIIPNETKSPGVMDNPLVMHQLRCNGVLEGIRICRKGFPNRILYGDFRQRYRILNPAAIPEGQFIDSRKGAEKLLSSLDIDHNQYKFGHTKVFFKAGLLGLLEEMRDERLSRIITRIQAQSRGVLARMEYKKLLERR
T1 sequence (P08590 2-195 partner limits assumed): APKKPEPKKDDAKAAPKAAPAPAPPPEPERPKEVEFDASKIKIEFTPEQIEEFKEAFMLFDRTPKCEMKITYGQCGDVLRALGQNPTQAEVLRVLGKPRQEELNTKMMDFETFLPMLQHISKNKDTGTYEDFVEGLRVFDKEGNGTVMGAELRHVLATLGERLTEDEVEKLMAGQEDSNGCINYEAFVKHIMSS

For the molecule `Cn1cc(S(=O)(=O)[C@@](C)(F)C2CCN(C(=O)Nc3ccon3)CC2)c(C(F)F)n1` [Compound I, (R)-4-(1-((3-(difluoromethyl)-1-methyl-1H-pyrazol-4-yl)sulfonyl)-1-fluoroethyl)-N-(isoxazol-3-yl)piperidine-1-carboxamide], in series [1], the Tmax lay within 4 to 6 h and the half-life is roughly 900 min. In addition, in series [2] (in vivo, patients that received Compound I as part of Cohort 1 (single doses)), the half-life lay within 1200 to 1500 min. Also, the concentration at 7 days in series [2] (plasma, 50 mg BID, with food, read-out: steady-state concentration) lay within 2000 to 3500 ng/mL. The “increase in ATPase rate, cardiac (human) S1 myosin” value in series [3] amounted to 1.4 fold. Besides, the activation at 3 µM in series [4] (at 3 μM, read-out: increase in ATPase, LA porcine myofibrils) was 56%. In addition, the fold induction at 50 µM in series [4] (at 50 μM, SD ±0.3, read-out: increase in ATPase turnover rate, atrial myofibrils) was 2.3.

The Tmax is the time from dosing to the highest level. A word on the half-life: it is the time in which the quantity being followed falls by half. High values mean slow decline, low ones rapid decline.
